Measurements as given in PMC6151589, “Identification of Optically Active Pyrimidine Derivatives as Selective 5-HT2C Modulators” (Molecules : A Journal of Synthetic Chemistry and Natural …, 2017).

Experiments:
Assay in all cases: biochemical
Design in all cases: species or system HEK293 or CHO; competitive radioligand binding on crude membranes, filtration and scintillation counting
5-HT2C = molecular target: T1, 5-HT2C (Homo sapiens, UniProt P28335)
T1 construct: gene HTR2C; human recombinant receptor; crude membrane fractions of transfected cells (CHO-K1; HEK293 or CHO)
T1 sequence (P28335 33-458): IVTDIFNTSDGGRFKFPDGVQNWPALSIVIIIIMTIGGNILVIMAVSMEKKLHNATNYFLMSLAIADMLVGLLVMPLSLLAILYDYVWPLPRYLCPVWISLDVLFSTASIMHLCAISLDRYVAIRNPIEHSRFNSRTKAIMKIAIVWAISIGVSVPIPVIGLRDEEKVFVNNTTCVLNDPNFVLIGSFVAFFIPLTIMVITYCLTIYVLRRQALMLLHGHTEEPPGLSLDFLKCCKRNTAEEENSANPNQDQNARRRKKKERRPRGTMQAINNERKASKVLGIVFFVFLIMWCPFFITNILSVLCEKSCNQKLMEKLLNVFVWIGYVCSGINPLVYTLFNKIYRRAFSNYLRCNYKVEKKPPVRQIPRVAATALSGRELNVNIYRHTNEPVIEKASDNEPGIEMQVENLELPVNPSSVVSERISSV
Experimental: (§1) Eleven dilutions (5 × assay concentration) of the test and reference compounds (Table S1) were prepared in standard binding buffer (50 mM tris(hydroxymethyl)-aminomethane-HCl (Tris-HCl), 10 mM MgCl2, 1 mM ethylenediaminetetraacetate (EDTA), pH 7.4) by serial dilution: 0.05 nM, 0.5 nM, 1.5 nM, 5 nM, 15 nM, 50 nM, 150 nM, 500 nM, 1.5 μM, 5 μM, and 50 μM. The radioligand (Table S3) was diluted to five times the assay concentration in standard binding buffer. Aliquots ([…]) of the radioligand were dispensed into the wells of a 96-well plate containing […] of standard binding buffer. Triplicate aliquots ([…]) of the test and reference compound dilutions were then added. Finally, crude membrane fractions ([…]) of cells (HEK293 or CHO) expressing human recombinant receptors were dispensed into each well. A total of […] of the reaction mixtures was incubated at room temperature and shielded from light for 1.5 h, and was then harvested by rapid filtration onto Whatman GF/B glass fiber filters presoaked with 0.3% polyethyleneimine, by using a 96-well Brandel harvester (Gaithersburg, MD, USA). Four rapid washes were performed with chilled standard binding buffer (500 mL) to decrease nonspecific binding. Filters were placed in 6 mL scintillation tubes and allowed to dry overnight. The next day, 4-mL of EcoScint scintillation cocktail (National Diagnostics) was added to each tube. The tubes were capped, labeled, and counted by […] scintillation counting. The filter mats were dried, and the scintillant was melted onto the filters, then the radioactivity retained on the filters was counted in a Microbeta scintillation counter. The IC50 values were obtained by using the Prism 4.0 program (GraphPad Software, La Jolla, CA, USA) and were converted into Ki values. Each compound was tested at least in triplicate. With each enantiomer (R)- or (S)-5d and 5e in hand, the optically active pyrimidine derivatives 4d–4e were synthesized following the same reaction sequences (Scheme 3). Finally, compounds 4d and 4e were assessed for their binding affinity to 5-HT2 receptor subtypes by radioligand binding assays. […] A further evaluation of these compounds for other 5-HT receptor subtypes was also performed and is provided in the supplementary data (Table S2). […] Considering the potencies and selectivities of 4, we can conclude that (R,R)-4e would be a viable candidate for a selective 5-HT2C modulator.

5-HT1D = molecular target: T2, 5-HT1D (Homo sapiens, UniProt P28221)
T2 construct: gene HTR1D; human recombinant receptor, crude membranes of HEK293 or CHO cells
T2 sequence (P28221 whole entry): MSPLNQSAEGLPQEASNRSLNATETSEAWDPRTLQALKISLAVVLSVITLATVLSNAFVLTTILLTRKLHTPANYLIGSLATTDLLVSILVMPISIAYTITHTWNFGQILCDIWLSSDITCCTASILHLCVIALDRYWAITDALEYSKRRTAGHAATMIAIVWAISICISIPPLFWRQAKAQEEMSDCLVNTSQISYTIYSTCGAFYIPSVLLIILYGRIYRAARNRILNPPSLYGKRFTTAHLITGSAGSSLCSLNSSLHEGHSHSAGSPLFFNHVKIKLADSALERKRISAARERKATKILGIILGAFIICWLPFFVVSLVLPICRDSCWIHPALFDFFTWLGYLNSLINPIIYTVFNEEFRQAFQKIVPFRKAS
Experimental: as §1

5-HT1A = molecular target: T3, 5-HT1A (Homo sapiens, UniProt P08908); conditions: for Ki: read-out: Ki (nM), 1A
T3 construct: gene HTR1A; human recombinant receptor, crude membranes of HEK293 or CHO cells
T3 sequence (P08908 1-422): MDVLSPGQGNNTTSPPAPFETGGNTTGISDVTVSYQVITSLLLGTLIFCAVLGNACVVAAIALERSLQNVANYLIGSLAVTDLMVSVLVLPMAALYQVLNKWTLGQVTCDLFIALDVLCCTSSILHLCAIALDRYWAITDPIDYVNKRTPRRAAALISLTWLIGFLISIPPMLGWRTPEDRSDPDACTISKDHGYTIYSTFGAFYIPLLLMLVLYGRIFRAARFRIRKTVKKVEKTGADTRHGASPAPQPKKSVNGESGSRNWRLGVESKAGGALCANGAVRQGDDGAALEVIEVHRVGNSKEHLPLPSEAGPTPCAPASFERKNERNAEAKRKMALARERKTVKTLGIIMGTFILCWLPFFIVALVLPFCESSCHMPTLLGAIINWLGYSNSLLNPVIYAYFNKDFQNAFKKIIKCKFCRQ
Experimental: as §1

5-HT6 = molecular target: T4, 5-HT6 (Homo sapiens, UniProt P50406); conditions: for Ki: read-out: Ki (nM), 6
T4 construct: gene HTR6; human recombinant receptor, crude membranes of HEK293 or CHO cells
T4 sequence (P50406 whole entry): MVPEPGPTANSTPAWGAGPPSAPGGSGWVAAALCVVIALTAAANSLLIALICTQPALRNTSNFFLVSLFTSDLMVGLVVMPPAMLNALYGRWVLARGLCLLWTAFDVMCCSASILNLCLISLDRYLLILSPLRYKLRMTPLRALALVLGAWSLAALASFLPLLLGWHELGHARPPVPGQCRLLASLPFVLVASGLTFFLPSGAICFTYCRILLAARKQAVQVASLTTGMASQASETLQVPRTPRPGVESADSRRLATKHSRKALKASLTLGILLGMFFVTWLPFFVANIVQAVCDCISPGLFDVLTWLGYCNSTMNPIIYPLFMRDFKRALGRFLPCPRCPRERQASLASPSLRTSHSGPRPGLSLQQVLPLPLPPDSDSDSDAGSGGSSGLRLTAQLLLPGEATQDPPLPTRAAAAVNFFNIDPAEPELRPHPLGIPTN
Experimental: as §1

5-HT3 = molecular target: T5, 5-HT3 (Homo sapiens, UniProt P46098); conditions: for Ki: read-out: Ki (nM), 3
T5 construct: gene HTR3A; human recombinant receptor, crude membranes of HEK293 or CHO cells
T5 sequence (P46098 1-478): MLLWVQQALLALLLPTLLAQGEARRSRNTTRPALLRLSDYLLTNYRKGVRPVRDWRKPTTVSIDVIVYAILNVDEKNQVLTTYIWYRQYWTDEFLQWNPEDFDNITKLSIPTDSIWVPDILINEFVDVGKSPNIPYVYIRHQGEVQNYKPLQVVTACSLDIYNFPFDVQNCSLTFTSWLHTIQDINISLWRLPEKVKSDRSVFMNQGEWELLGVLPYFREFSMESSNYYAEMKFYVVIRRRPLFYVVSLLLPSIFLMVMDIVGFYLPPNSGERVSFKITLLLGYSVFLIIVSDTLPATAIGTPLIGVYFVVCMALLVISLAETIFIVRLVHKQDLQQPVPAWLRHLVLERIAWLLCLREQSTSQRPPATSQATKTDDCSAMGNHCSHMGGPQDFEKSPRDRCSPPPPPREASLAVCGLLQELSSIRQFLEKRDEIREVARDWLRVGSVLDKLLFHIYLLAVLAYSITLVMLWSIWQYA
Experimental: as §1

Row | SMILES | inhibition at 10 µM (5-HT2C) [%] | inhibition at 10 µM (5-HT1D) [%] | inhibition at 10 µM (5-HT1A) [%] | Ki (5-HT1A) [nM] | inhibition at 10 µM (5-HT6) [%] | Ki (5-HT6) [nM] | inhibition at 10 µM (5-HT3) [%] | Ki (5-HT3) [nM] | Ki (5-HT1D; read-out: Ki (nM), 1D) [nM]
1 | C[C@H](Oc1nc(N2CCNC[C@H]2C)ncc1F)c1cccc(F)c1 [(S,R)-4d, 5-Fluoro-4-((S)-1-(3-fluorophenyl)ethoxy)-2-((R)-2-methylpiperazin-1-yl)pyrimidine] | 97.7 | 10.3 | 67.7 | 806 | 91.6 | 70 | 78.6 | 501 | 
2 | C[C@@H]1CNCCN1c1ncc(F)c(O[C@H](C)c2cccc(F)c2)n1 [(R,R)-4d, 5-Fluoro-4-((R)-1-(3-fluorophenyl)ethoxy)-2-((R)-2-methylpiperazin-1-yl)pyrimidine] | 98.5 | -6.8 | 78 | 98 | 95.7 | 57 | 89.4 | 242 | 
3 | C[C@H](Cc1cccc(F)c1)Oc1nc(N2CCNC[C@H]2C)ncc1F [compound 3, pyrimidine analogue 3] | 98.2 | 78.3 | 89 | 353 | 93.8 | 43 | 75 | 241 | 542
4 | C[C@H](Oc1nc(N2CCNC[C@H]2C)ncc1F)c1ccc(F)cc1 [(S,R)-4e, 5-Fluoro-4-((S)-1-(4-fluorophenyl)ethoxy)-2-((R)-2-methylpiperazin-1-yl)pyrimidine] | 97.8 | 40.4 | 67.3 | 1120 | 86.1 | 116 | 70.1 | 1000 | 
5 | C[C@@H]1CNCCN1c1ncc(F)c(O[C@H](C)c2ccc(F)cc2)n1 [(R,R)-4e, 5-Fluoro-4-((R)-1-(4-fluorophenyl)ethoxy)-2-((R)-2-methylpiperazin-1-yl)pyrimidine] | 94.2 | -7.7 | 10 |  | 97.4 | 17 | 87.8 | 242 | 
